{"source": "patent US6087401A", "about": "“Cyclopentenones, process for preparing the same, and the use thereof” (Takara Shuzo Co., Ltd., priority 1996, dated 2000)", "key": {"[1]": {"test_system": "Escherichia coli HB101 (ATCC 33694)", "test": "growth turbidity, microorganism (13)", "type": "cell-based", "settings": "8 h, control 222", "text": "(§1) They were testing microorganism (13): Escherichia coli HB101 (ATCC 33694); testing microorganism (14): Salmonella typhimurium LT-2 (ATCC 27106); testing microorganism (15): Pseudomonas aeruginosa (IFO 3080); testing microorganism (16): Staphylococcus aureus 3A (NCTC 8319); testing microorganism (17): Bacillus subtilis (IFO 3034); and testing microorganism (18): Streptococcus mutans (GS5; stored at National Institute of Health).\n(§2) The testing microorganisms were subjected to a seed culture overnight in an L-broth (1% tryptone, 0.5% yeast extract and […]; pH 7.0). The seed culture (5 μl) was inoculated to a medium to which 25-200 μg/ml of cyclopentenone was added to 5 ml of L-both and also to a medium to which nothing was added and a shake incubation was conducted at 37° C. to measure the growth. At the initiation of the incubation and also at eight hours thereafter, turbidity of the culture was measured using a Fuji Digital Turbidimeter (sold from Fuji Kogyo KK; manufactured by Akiyama Denki Seisakusho) under the condition that the adjusted scale was 82.3 and the growth of the tested microorganism was measured from the value (growth turbidity) obtained by deducting the turbidity at the initiation of incubation from that after eight hours. Incidentally, in the case of the testing microorganism (18), a brain heart infusion was used instead of L-broth."}, "[2]": {"test_system": "Salmonella typhimurium LT-2 (ATCC 27106)", "test": "growth turbidity, microorganism (14)", "type": "cell-based", "settings": "8 h, control 273", "text": "as §1, §2"}, "[3]": {"test_system": "Pseudomonas aeruginosa (IFO 3080)", "test": "growth turbidity, microorganism (15)", "type": "cell-based", "settings": "8 h, control 239", "text": "as §1, §2"}, "[4]": {"test_system": "Streptococcus mutans (GS5)", "test": "growth turbidity, microorganism (18)", "type": "cell-based", "settings": "8 h, control 140", "text": "as §1, §2"}, "[5]": {"test_system": "Lactobacillus fructivorans (JCM 1198)", "test": "antibacterial activity to hiochi bacteria, microorganism B", "type": "cell-based", "settings": "five days; for Growth Turbidity (OD600): control 2.03", "method": "The testing microorganism was subjected to a stationary incubation for five days in an SI medium (Japan Brewery Association) containing 10% of ethanol to give a seed microorganism. The seed microorganism (0.1%) was added to 100 ml of 10% ethanol-containing SI medium to which the cyclopentenone was added in an amount of 0, 25, 50, 75 or 100 μg/ml (in terms of final concentration), then a stationary incubation was conducted for five days and the turbidity was measured. In measuring the turbidity, the value of OD600 was measured using an absorbance meter. A value of OD600 of the medium to which no testing microorganism was inoculated was deducted from the above value and this (growth turbidity) was used for the growth of the tested microorganism.\nThe tested microorganisms were as follows. Thus, Lactobacillus fructivorans (IFO 13118) (testing microorganism A), Lactobacillus fructivorans (JCM 1198) (testing microorganism B) and Lactobacillus homohiochii (IFO 13120) (testing microorganism C) as true hiochi bacteria while Lactobacillus rhamnosus (IFO 3532) (testing microorganism D) was used as hiochi lactobacteria."}, "[6]": {"test_system": "Legionella pneumophila (isolated from bathtub water of hot spring)", "type": "cell-based", "settings": "12 ppm, common logarithm"}, "[7]": {"test_system": "EAC", "test": "life-prolonging effect, EAC", "type": "in vivo, female mice of DDY strain", "settings": "intraperitoneal tumor"}, "[8]": {"test_system": "Mouse leukemia P-388", "test": "life-prolonging effect, leukemia P-388", "settings": "10 mg/kg/day i.p., five days"}}, "note": "Where two headings read alike, the source gives them in different places."}
{"compound": "O=C1C=CC(O)C1O", "note": "(stereo not drawn) [the cyclopentenone, 4,5-dihydroxy-2-cyclopenten-1-one]", "values": [{"measurement": "Growth Turbidity", "setting": "[1]; 25 μg/ml", "result": 0}, {"measurement": "Growth Turbidity", "setting": "[1]; 50 μg/ml", "result": 0}, {"measurement": "Growth Turbidity", "setting": "[1]; 100 μg/ml", "result": 0}, {"measurement": "Growth Turbidity", "setting": "[1]; 200 μg/ml", "result": 0}, {"measurement": "Growth Turbidity", "setting": "[2]; 100 μg/ml", "result": 0}, {"measurement": "Growth Turbidity", "setting": "[2]; 200 μg/ml", "result": 0}, {"measurement": "Growth Turbidity", "setting": "[3]; 25 μg/ml", "result": 2}, {"measurement": "Growth Turbidity", "setting": "[3]; 50 μg/ml", "result": 0}, {"measurement": "Growth Turbidity", "setting": "[3]; 100 μg/ml", "result": 0}, {"measurement": "Growth Turbidity", "setting": "[3]; 200 μg/ml", "result": 0}, {"measurement": "Growth Turbidity", "setting": "[4]; 25 μg/ml", "result": 133}, {"measurement": "Growth Turbidity", "setting": "[4]; 50 μg/ml", "result": 130}, {"measurement": "Growth Turbidity", "setting": "[4]; 100 μg/ml", "result": 34}, {"measurement": "Growth Turbidity", "setting": "[4]; 200 μg/ml", "result": 6}, {"measurement": "Growth Turbidity (OD600)", "setting": "[5]; 25 μg/ml", "result": 0.01}, {"measurement": "Growth Turbidity (OD600)", "setting": "[5]; 50 μg/ml", "result": 0}, {"measurement": "Growth Turbidity (OD600)", "setting": "[5]; 75 μg/ml", "result": 0}, {"measurement": "MIC", "setting": "[5]; Fructilactobacillus fructivorans, JCM1198, 120 h, read-out: concentration completely inhibiting growth", "result": 50, "unit": "µg/mL"}, {"measurement": "Numbers of Tested Microorganism Cells after Incubation", "setting": "[6]; 16 h, 0 ppm 7.4", "result": 6.1, "unit": "log10 CFU/mL"}, {"measurement": "Numbers of Tested Microorganism Cells after Incubation", "setting": "[6]; 96 h, 0 ppm 8.6", "result": 8.6, "unit": "log10 CFU/mL"}, {"measurement": "increase in life span", "setting": "[7]", "result": 255, "unit": "%"}, {"measurement": "mean survival days", "setting": "[7]; control 15.8 days", "result": 40.3, "unit": "days"}, {"measurement": "life-prolonging rate", "setting": "[8]", "result": 306.1, "unit": "%"}, {"measurement": "average surviving days", "setting": "[8]; control 10.3 days", "result": 31.4, "unit": "days"}]}
